Experiments:
[1] = for surface tension liquid-gas: Drop volume; for mass density: Liquid
[2] = xn = mol fraction of the nth substance listed; details: for surface tension liquid-gas: Drop volume; for mass density: 101 kPa, Liquid

CCCCCCCCC [nonane]
[1]
Details	mass density [kg/m3]	surface tension liquid-gas [mN/m]
288.15 K	721.78	23.38
298.15 K	714.02	22.37
308.15 K	706.21	21.25

CCCCCCO [hexan-1-ol]
[1]
Details	mass density [kg/m3]	surface tension liquid-gas [mN/m]
288.15 K	822.28	26.08
298.15 K	815.23	25.19
308.15 K	808	24.19

CCCCCCCCC [nonane] + CCCCCCO
[2]
Details	mass density [kg/m3]	surface tension liquid-gas [mN/m]
288.15 K, x1 = 0.05	–	25.77
288.15 K, x1 = 0.0509	815.13	–
288.15 K, x1 = 0.1003	808.46	–
288.15 K, x1 = 0.1082	–	25.47
288.15 K, x1 = 0.2028	795.35	–
288.15 K, x1 = 0.2075	–	25.06
288.15 K, x1 = 0.307	783.01	–
288.15 K, x1 = 0.3079	–	24.62
288.15 K, x1 = 0.4026	772.51	–
288.15 K, x1 = 0.4075	–	24.31
288.15 K, x1 = 0.5066	–	24.01
288.15 K, x1 = 0.5086	761.75	–
288.15 K, x1 = 0.6016	753.02	–
288.15 K, x1 = 0.6024	–	23.81
288.15 K, x1 = 0.7079	–	23.68
288.15 K, x1 = 0.708	743.74	–
288.15 K, x1 = 0.808	735.7	–
288.15 K, x1 = 0.8081	–	23.57
288.15 K, x1 = 0.9016	728.72	–
288.15 K, x1 = 0.9036	–	23.48
288.15 K, x1 = 0.9506	725.26	–
288.15 K, x1 = 0.9554	–	23.44
298.15 K, x1 = 0.0504	–	24.84
298.15 K, x1 = 0.0509	807.93	–
298.15 K, x1 = 0.1003	801.18	–
298.15 K, x1 = 0.1004	–	24.54
298.15 K, x1 = 0.2028	787.95	–
298.15 K, x1 = 0.2042	–	24.12
298.15 K, x1 = 0.2998	–	23.69
298.15 K, x1 = 0.307	775.48	–
298.15 K, x1 = 0.388	–	23.41
298.15 K, x1 = 0.4026	764.9	–
298.15 K, x1 = 0.5011	–	23.07
298.15 K, x1 = 0.5086	754.06	–
298.15 K, x1 = 0.6016	745.28	–
298.15 K, x1 = 0.606	–	22.84
298.15 K, x1 = 0.708	735.96	–
298.15 K, x1 = 0.7086	–	22.66
298.15 K, x1 = 0.808	727.88	–
298.15 K, x1 = 0.8085	–	22.56
298.15 K, x1 = 0.9007	–	22.48
298.15 K, x1 = 0.9016	720.88	–
298.15 K, x1 = 0.9506	717.44	–
298.15 K, x1 = 0.9508	–	22.39
308.15 K, x1 = 0.0509	800.64	–
308.15 K, x1 = 0.0511	–	23.81
308.15 K, x1 = 0.1003	793.82	–
308.15 K, x1 = 0.1013	–	23.52
308.15 K, x1 = 0.2028	780.43	–
308.15 K, x1 = 0.2059	–	23.08
308.15 K, x1 = 0.3066	–	22.59
308.15 K, x1 = 0.307	767.86	–
308.15 K, x1 = 0.4026	757.19	–
308.15 K, x1 = 0.404	–	22.27
308.15 K, x1 = 0.5065	–	21.98
308.15 K, x1 = 0.5086	746.28	–
308.15 K, x1 = 0.6016	737.44	–
308.15 K, x1 = 0.6028	–	21.77
308.15 K, x1 = 0.708	728.09	–
308.15 K, x1 = 0.7135	–	21.59
308.15 K, x1 = 0.8059	–	21.47
308.15 K, x1 = 0.808	719.98	–
308.15 K, x1 = 0.9016	712.97	–
308.15 K, x1 = 0.9043	–	21.34
308.15 K, x1 = 0.9506	709.52	–
308.15 K, x1 = 0.9519	–	21.27
